A short description of series [1]: Water solubility at room temperature.
Series [2] can be described thus: Determination of bulk density (1 L measuring cylinder). The series is classed as physicochemical. The procedure: The bulk density in kg/L was determined using a 1 L measuring cylinder, which was filled with the bulk material precisely to the 1000 ml mark, and was measured by weighing the weight of the contents so as to result in the bulk density directly.
Series [3] can be described thus: Minimum ignition energy. The series is classed as physicochemical.
Series [4] in a line: Dust content. The series is classed as physicochemical. To be noted: fraction <63 μm.

Values after ≈ are worked out from the molar mass of the structure shown. Residues, ends and D or L forms follow the SMILES beside them. Bounds are passed on as bounds.

Take `CSCCC(N)C(=O)NC(CCSC)C(=O)O` (stereo not drawn) [DDLL-Met-Met, DD/LL-methionylmethionine] (H-Met-Met-OH; configuration not given here): in series [1], the water solubility amounted to 21.0 mg/mL (≈ 74.9 mM).
For the compound `CSCCC(N)C(=O)NC(CCSC)C(=O)O` (stereo not drawn) [DLLD-Met-Met, DL/LD-methionylmethionine] (H-Met-Met-OH; configuration not given here), the bulk density in series [2] was greater than 600 kg/m^3. Further, the figures for the minimum ignition energy entry in series [3] (100° C.) and in series [3] (room temperature) were “above 3 mJ” and “above 10 mJ”, respectively. For the same compound, in series [4], the dust content result was “approx. 10%”.

These data come from patent US12715848B2, “Process for the diastereomerically pure preparation of DL/LD-methionylmethionine” (Evonik Operations GmbH, priority 2020, dated 2026).
